In patent publication US20230218706A1 (9 Meters Biopharma, Inc., priority 2020, published 2023):
“Also recorded” adds a separate entry of the source. Where a SMILES comes first, the peptide text is derived from it. Where no end group is shown, it is not given here. [ ]: non-standard residue; d: D form.

Experiments:
[1] = system: pig ischemic jejunum tissue; experiment: Ex vivo assessment of peptide stability (degradation by brush border enzymes) in pig ischemic jejunum tissue; settings: for peptide concentration, T = 0 mins after addition / peptide concentration, T = 30 mins after addition / peptide concentration, T = 120 mins after addition: 1 μm addition of each peptide to pig ischemic jejunum tissue
Text: (§1) After 45-minutes of ischemia, the pigs were euthanized, and intestinal segments were collected. Non-ischemic control tissue was also collected at this time. Following tissue collection, the seromuscular layer was stripped from the mucosa while the tissue was bathed in oxygenated (95% 02, 5% CO2) Ringer's solution (in mmol/L: 154 Na^+, 6.3 K^+, 137 Cl^−, and 24 HCO3−; pH 7.4). The mucosa was subsequently mounted in 1.1-cm^2 aperture Ussing chambers, as described in previous studies, which are herein incorporated by reference in their entireties, Moeser, A. J.; Nighot, P. K.; Ryan, K. A.; Wooten, J. G.; Blikslager, A. T. Prostaglandin-mediated inhibition of Na+/H+ exchanger isoform 2 stimulates recovery of barrier function in ischemia-injured intestine. Am J Physiol Gastrointest Liver Physiol (2006), 291, G885-94; and Jin, Y.; Blikslager, A. T. Myosin light chain kinase mediates intestinal barrier dysfunction via occludin endocytosis during anoxia/reoxygenation injury. Am J Physiol Cell Physiol (2016), 311, C996-C1004. Tissues were bathed on both the mucosal and serosal sides with 10 mL Ringer's solution. The mucosal bathing solution contained 10 mM mannitol while the serosal side was osmotically balanced with 10 mM glucose. Bathing solutions were oxygenated (95% O2, 5% CO2) and circulated in water-jacketed reservoirs. The spontaneous potential difference (PD) was measured using Ringer-agar bridges connected to calomel electrodes, and the PD was short-circuited through Ag—AgCl electrodes using a voltage clamp that was corrected for fluid resistance. TER (Ω·cm^2) was calculated from the spontaneous PD and short-circuit current (Isc). If the spontaneous PD was between −1.0 and 1.0 mV, tissues were current clamped at ±100 μA for 5-seconds, and the PD was recorded. Isc and PD were recorded at 15-minute intervals over a 4-hour experiment. After tissues were mounted on Ussing chambers, all tissues were allowed to acclimate for a period of 30-minutes to establish stable baseline measurements, after which experimental treatments of larazotide or larazotide analogs was added to the apical chamber. Tissues were monitored by measuring transepithelial resistance (TER) for 240 min. Samples of Ringers solution were collected at select timepoints and quenched with 5% trifluoroacetic acid (TFA) solution (in 80% acetonitrile (ACN): 20% DI water). Quenched samples were centrifuged at 13000×g for 5-minutes and the resulting supernatants were stored at −80° C. for future MS analysis.
The recovery effects of Analogs #5 and 6 were also compared in an ex vivo test for recovery of ischemic-injured pig jejunum tissue. […] Analogs #5 and 6 were further compared for peptide stability—Analog #5 (D-Val), Analog #6 (All D) and larazotide concentrations were measured at TO, 30, and 120 minutes after 1 μm addition of each to pig ischemic jejunum tissue.
A set of experiments was conducted in order to compare the all-D amino acid larazotide analog (Analog #6) with larazotide in terms of degradation profiles, recovery effects, and dose response profiles.

[2] = system: ischemic-injured porcine jejunum; experiment: Ex vivo recovery of transepithelial electrical resistance (TEER/TER) of ischemic-injured porcine jejunum in Ussing chambers; format: cell-based, pig; settings: for effect of excess fragment on action of Analog #6: 10 μM fragment applied 30 mins before 0.1 μM Analog #6 (100 fold excess), FIGS. 8-10; for activity as tight junction regulators: fragment alone; for effect of fragment on larazotide activity: fragment mixed with full-length larazotide (10 μM fragment + 1 μM larazotide, FIG. 7); for induction of recovery of ischemic-injured tissue: FIG. 2
Text: In order to evaluate the activity profile of larazotide and larozotide analogs, an ex vivo assay was employed measuring transepithelial electrical resistance (TEER) of ischemic-injured porcine jejunum.
Several larazotide analogs were initially tested in an ex vivo model, measuring the recovery of an ischemic-injured pig jejunum tissue.
Six-to-eight-week-old Yorkshire crossbred pigs of either sex were individually housed and maintained on a commercially pelleted feed. Pigs were held off feed for 12 hours prior to experimental surgery. General anesthesia was induced with xylazine (1.5 mg/kg IM), ketamine (11 mg/kg IM), followed by mask delivery of isoflurane vaporized in 100% 02. Pigs were subsequently orotracheally intubated, followed by continued delivery of isoflurane in 100% 02 to maintain a surgical plane of anesthesia. An intravenous catheter was placed in an ear vein for delivery of fluids during surgery (lactated Ringer solution, 15 m1·kg^−1h^−1, IV). The distal jejunum was approached via a ventral midline incision. Jejunal segments were delineated by ligating the intestine at 8-10 cm intervals with 2-0 silk, and were subjected to segmental ischemia by ligating the local mesenteric blood supply with 2-0 silk for 45-minutes.
as §1, with “chamber.” for “chamber. Tissues were monitored by measuring transepithelial resistance (TER) for 240 min. Samples of Ringers solution were collected at select timepoints and quenched with 5% trifluoroacetic acid (TFA) solution (in 80% acetonitrile (ACN): 20% DI water). Quenched samples were centrifuged at 13000×g for 5-minutes and the resulting supernatants were stored at −80° C. for future MS analysis.”

[3] = system: BLM-induced pulmonary fibrosis model mice
Celiac disease symptoms = settings: cited from earlier work

For CC(C)C[C@H](NC(=O)[C@H](NC(=O)CNC(=O)CN)C(C)C)C(=O)N[C@H](C(=O)N[C@@H](CCC(N)=O)C(=O)N1CCC[C@H]1C(=O)NCC(=O)O)C(C)C [Analog #5, H2N-GG(dV)LVQPG-OH] (H-GG[dV]LVQPG-OH), which “peptide concentration, T = 0 mins after addition” value [1] is on record?
Its value is 0.510 µg/mL.

What about the “peptide concentration, T = 30 mins after addition” value [1] of the same molecule?
Its value is 0.012 µg/mL.

And the “peptide concentration, T = 120 mins after addition” value [1]?
The value was 0.005 µg/mL.

What does the source list for CC(C)C[C@@H](NC(=O)[C@H](NC(=O)CNC(=O)CN)C(C)C)C(=O)N[C@@H](C(=O)N[C@H](CCC(N)=O)C(=O)N1CCC[C@@H]1C(=O)NCC(=O)O)C(C)C [Analog #6, H2N-GG(dV)(dL)(dV)(dQ)(dP)G-OH] (H-GG[dV][dL][dV][dQ][dP]G-OH)?
peptide concentration, T = 0 mins after addition [1]: 0.517 ug/ml ug/mL; peptide concentration, T = 30 mins after addition [1]: 0.436 µg/mL; peptide concentration, T = 120 mins after addition [1]: 0.086 µg/mL; resistance to brush border enzyme degradation ([1]; jejunum epithelial brush border enzymes, in words (Table 2, FIG. 4)): significant resistance to brush border enzyme degradation as compared to larazotide and Analog #5; also recorded: significantly more resistant to degradation than larazotide; dose response of repair of injured intestine (TER) ([2]; 0.01 μM, 0.1 μM, 1 μM and 10 μM, FIG. 6): did not exhibit the distinct bell-shaped dose-response of larazotide; recovery of TER ([2]; 0.1 μM, FIG. 6): induced good recovery of TER; recovery of ischemic-injured intestine (transepithelial electrical resistance) ([2]; 1 μM, recovery period of 240 minutes, FIG. 5): induces recovery to substantially the same extent as larazotide; recovery effect on ischemic-injured pig jejunum tissue ([2]; FIG. 3, Analog #6 compared with Analog #5): pronounced recovery effect as compared to Analog #5; lung fibrosis, Ashcroft grading of Masson's Trichrome-stained right lung sections ([3]; 1 mg/kg orally once daily Day 0 to 20, sacrifice Day 21, FIG. 18): less fibrosis than either the vehicle or larazotide samples; therapeutic effect in mouse model of pulmonary fibrosis ([3]; provided orally): better therapeutic effect than larazotide

Which “effect of excess fragment on action of Analog #6” value [2] does the source give for “(d)Val-(d)Leu-(d)Val-(d)Gln-(d)Pro-Gly [Analog A6F2]” here?
The value was “does not appear to be meaningfully blocked”.

What does the source list for “GVLVQPG [Fragment 1, reference compound]”?
activity as tight junction regulators [2]: inactive as tight junction regulators; effect of fragment on larazotide activity [2]: inhibit larazotide activity; also recorded: activity is completely abolished

With “Gly-(d)Val-(d)Leu-(d)Val-(d)Gln-(d)Pro-Gly [Analog A6F1]” as the molecule, how does the “effect of excess fragment on action of Analog #6” value [2] read?
Its value is “less significant impact on the action of the all-D amino acid larazotide analog”.

Which “induction of recovery of ischemic-injured tissue” value (from here on “induction”) [2] does the source give for “H2N-(dV)GGVLVQPG-OH (H-[dV]GGVLVQPG-OH; SMILES CC(C)C[C@H](NC(=O)[C@@H](NC(=O)CNC(=O)CNC(=O)[C@H](N)C(C)C)C(C)C)C(=O)N[C@H](C(=O)N[C@@H](CCC(N)=O)C(=O)N1CCC[C@H]1C(=O)NCC(=O)O)C(C)C) [Analog #2]” here?
The value was “no significant induction of recovery”.

With “H2N-GGV(dL)VQPG-OH (H-GGV[dL]VQPG-OH) [Analog #1]” as the molecule, how does the “induction” value [2] read?
Its value is “no significant induction of recovery”.

With “H2N-VGGVLVQPG-OH (H-VGGVLVQPG-OH) [Analog #3]” as the molecule, how does the “induction” value [2] read?
Its value is “no significant induction of recovery”.

Which “peptide concentration, T = 0 mins after addition” value [1] does the source give for “H-GGVLVQPG-OH [Larazotide, reference compound]” here?
Its value is 0.508 µg/mL.

What about the “peptide concentration, T = 30 mins after addition” value [1] of the same molecule?
The value was 0.212 µg/mL.

And the “peptide concentration, T = 120 mins after addition” value [1]?
The value was 0.007 µg/mL.

And the “activity at higher doses in clinical trials” value (Celiac disease symptoms; higher doses (e.g., 1 mg and 2 mg doses))?
Its value is “attenuation of activity, or no activity at all”.

What about the “reduction of Celiac disease symptoms” value (Celiac disease symptoms; lower doses (e.g., 0.5 mg dose)) of the same molecule?
The value was “significant benefit at reducing Celiac disease symptoms”.

What about the “dose-response of repair of ischemic-injured intestine (TEER)” value ([2]; FIG. 1, low, middle and high dose range) of the same molecule?
The value was ““bell-shaped” dose-dependent manner”.

With VLVQPG [Fragment 2, reference compound] as the molecule, how does the “activity as tight junction regulators” value [2] read?
Its value is “inactive as tight junction regulators”.

What about the “effect of fragment on larazotide activity” value [2] of the same molecule?
Its value is “inhibit larazotide activity; also recorded: activity is completely abolished”.
